Where a name gives a salt, the structure may show the parent alone.

The target of the experiment is T1, human V1a receptor (Homo sapiens, UniProt P37288).
T1 construct: expressed in transfected cells; host or cells: HEK293 cells, transiently transfected; membranes prepared
T1 sequence (P37288 whole entry): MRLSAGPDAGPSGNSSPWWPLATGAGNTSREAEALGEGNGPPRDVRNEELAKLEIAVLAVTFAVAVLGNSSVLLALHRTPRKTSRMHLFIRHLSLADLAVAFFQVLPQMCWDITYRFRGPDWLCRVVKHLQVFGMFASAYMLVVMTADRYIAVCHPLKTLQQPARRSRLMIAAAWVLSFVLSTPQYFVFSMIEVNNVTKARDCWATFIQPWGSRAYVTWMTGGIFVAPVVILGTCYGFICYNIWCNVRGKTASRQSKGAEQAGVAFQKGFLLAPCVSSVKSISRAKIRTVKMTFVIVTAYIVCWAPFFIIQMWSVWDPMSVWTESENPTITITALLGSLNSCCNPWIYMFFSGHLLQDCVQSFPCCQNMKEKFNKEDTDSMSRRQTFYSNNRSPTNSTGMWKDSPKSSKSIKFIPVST
The experiment in a line: human V1a receptor binding (3H-Vasopressin SPA, HEK293 membranes). The note with it: membranes of HEK293 cells transiently transfected with human V1a receptor, Ki by Cheng-Prussoff, read-out: pKi (hV1a) (converted). In a few lines: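 HEK293 membranes transiently expressing cloned human V1a receptor, bound to yttrium silicate SPA beads in Tris/NaCl/KCl/CaCl2/MgCl2 buffer. Test compounds in 2% DMSO competed with 3H-vasopressin (4 nM solution added) for 1 h at room temperature; non-specific binding defined with cold vasopressin. IC50 from non-linear fit, Ki via Cheng-Prusoff.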
With `Cc1nn([C@H]2CC[C@H](c3nnc4n3-c3ccc(Cl)cc3CN(C)C4)CC2)c(C)c1C` [Example 120, trans-8-Chloro-1-[4-(3,4,5-trimethyl-pyrazol-1-yl)-cyclohexyl]-5-methyl-5,6-dihydro-4H-2,3,5,10b-tetraaza-benzo[e]azulene], the Ki is 1.95 nM.

For the compound `Clc1ccc2c(c1)CNCc1nnc([C@H]3CC[C@H](c4ncco4)CC3)n1-2` [Example 2, trans-8-Chloro-1-(4-oxazol-2-yl-cyclohexyl)-5,6-dihydro-4H-2,3,5,10b-tetraaza-benzo[e]azulene], the Ki was 53.7 nM.

Turning to `CC(C)(C)OC(=O)N1Cc2cc(Cl)ccc2-n2c(nnc2[C@H]2CC[C@@H](c3noc4c3CCCC4)CC2)C1` [Example 57, cis-8-Chloro-1-[4-(4,5,6,7-tetrahydro-benzo[d]isoxazol-3-yl)-cyclohexyl]-4H,6H-2,3,5,10b-tetraaza-benzo[e]azulene-5-carboxylic acid tert-butyl ester], the Ki was 46.8 nM.

Consider `Cc1nc([C@H]2CC[C@H](c3nnc4n3-c3ccc(Cl)cc3CNC4)CC2)sc1Cl` [Example 102, trans-8-Chloro-1-[4-(5-chloro-4-methyl-thiazol-2-yl)-cyclohexyl]-5,6-dihydro-4H-2,3,5,10b-tetraaza-benzo[e]azulene], for which the Ki is 3.8 nM.

In the case of `CC(=O)N1Cc2cc(Cl)ccc2-n2c(nnc2[C@H]2CC[C@H](c3cc(C)on3)CC2)C1` [Example 31, trans-1-{8-Chloro-1-[4-(5-methyl-isoxazol-3-yl)-cyclohexyl]-4H,6H-2,3,5,10b-tetraaza-benzo[e]azulen-5-yl}-ethanone], the Ki is 1.74 nM.

As for `CC(C)(C)OC(=O)N1Cc2cc(Cl)ccc2-n2c(nnc2[C@H]2CC[C@H](c3noc(CO)c3CO)CC2)C1` [Example 108, trans-1-[4-(4,5-Bis-hydroxymethyl-isoxazol-3-yl)-cyclohexyl]-8-chloro-4H,6H-2,3,5,10b-tetraaza-benzo[e]azulene-5-carboxylic acid tert-butyl ester], the Ki is 12.6 nM.

With `CCc1cc([C@H]2CC[C@H](c3nnc4n3-c3ccc(Cl)cc3CN(C(=O)OC(C)(C)C)C4)CC2)no1` [Example 49, trans-8-Chloro-1-[4-(5-ethyl-isoxazol-3-yl)-cyclohexyl]-4H,6H-2,3,5,10b-tetraaza-benzo[e]azulene-5-carboxylic acid tert-butyl ester], the Ki is 4.07 nM.

Regarding `CC(C)c1nc([C@H]2CC[C@@H](c3nnc4n3-c3ccc(Cl)cc3CN(C(=O)OC(C)(C)C)C4)CC2)no1` [Example 91, cis-8-Chloro-1-[4-(5-isopropyl-[1,2,4]oxadiazol-3-yl)-cyclohexyl]-4H,6H-2,3,5,10b-tetraaza-benzo[e]azulene-5-carboxylic acid tert-butyl ester], the Ki was 34.7 nM.

`Cc1noc([C@H]2CC[C@H](c3nnc4n3-c3ccc(Cl)cc3CNC4)CC2)n1` [Example 67, trans-8-Chloro-1-[4-(3-methyl-[1,2,4]oxadiazol-5-yl)-cyclohexyl]-5,6-dihydro-4H-2,3,5,10b-tetraaza-benzo[e]azulene hydrochloride]: the Ki is 67.6 nM.

Regarding `CN1Cc2cc(Cl)ccc2-n2c(nnc2[C@H]2CC[C@@H](c3noc4c3CCCC4)CC2)C1` [Example 59, cis-8-Chloro-5-methyl-1-[4-(4,5,6,7-tetrahydro-benzo[d]isoxazol-3-yl)-cyclohexyl]-5,6-dihydro-4H-2,3,5,10b-tetraaza-benzo[e]azulene], the Ki was 8.13 nM.

Take `Cc1nn([C@H]2CC[C@H](c3nnc4n3-c3ccc(Cl)cc3CNC4)CC2)c(C)c1C` [Example 119, trans-8-Chloro-1-[4-(3,4,5-trimethyl-pyrazol-1-yl)-cyclohexyl]-5,6-dihydro-4H-2,3,5,10b-tetraaza-benzo[e]azulene]: the Ki is 2.19 nM.

For the compound `Cc1coc([C@H]2CC[C@H](c3nnc4n3-c3ccc(Cl)cc3CN(C)C4)CC2)n1` [Example 6, trans-8-Chloro-5-methyl-1-[4-(4-methyl-oxazol-2-yl)-cyclohexyl]-5,6-dihydro-4H-2,3,5,10b-tetraaza-benzo[e]azulene], the Ki was 3.31 nM.

Take `CCc1nc([C@H]2CC[C@@H](c3nnc4n3-c3ccc(Cl)cc3CN(C(=O)OC(C)(C)C)C4)CC2)no1` [Example 85, cis-8-Chloro-1-[4-(5-ethyl-[1,2,4]oxadiazol-3-yl)-cyclohexyl]-4H,6H-2,3,5,10b-tetraaza-benzo[e]azulene-5-carboxylic acid tert-butyl ester]: the Ki is 40.7 nM.

With `CC(C)c1nc([C@H]2CC[C@@H](c3nnc4n3-c3ccc(Cl)cc3CN(C)C4)CC2)no1` [Example 96], the Ki is 204 nM.

Take `Cc1nc([C@H]2CC[C@H](c3nnc4n3-c3ccc(Cl)cc3CN(C)C4)CC2)oc1C` [Example 12, trans-8-Chloro-5-methyl-1-[4-(4,5-dimethyl-oxazol-2-yl)-cyclohexyl]-5,6-dihydro-4H-2,3,5,10b-tetraaza-benzo[e]azulene]: the Ki is 0.851 nM.

`Cc1noc([C@H]2CC[C@H](c3nnc4n3-c3ccc(Cl)cc3CN(C)C4)CC2)n1` [Example 68, trans-8-Chloro-5-methyl-1-[4-(3-methyl-[1,2,4]oxadiazol-5-yl)-cyclohexyl]-5,6-dihydro-4H-2,3,5,10b-tetraaza-benzo[e]azulene]: the Ki is 6.61 nM.

For `Cc1onc([C@H]2CC[C@H](c3nnc4n3-c3ccc(Cl)cc3CNC4)CC2)c1F` [Example 46, trans-8-Chloro-1-[4-(4-fluoro-5-methyl-isoxazol-3-yl)-cyclohexyl]-5,6-dihydro-4H-2,3,5,10b-tetraaza-benzo[e]azulene], the Ki is 8.51 nM.

On to `CN1Cc2cc(Cl)ccc2-n2c(nnc2[C@H]2CC[C@H](n3cccn3)CC2)C1` [Example 111, trans-8-Chloro-5-methyl-1-(4-pyrazol-1-yl-cyclohexyl)-5,6-dihydro-4H-2,3,5,10b-tetraaza-benzo[e]azulene], for which the Ki was 17 nM.

For `Cc1nc([C@H]2CC[C@H](c3nnc4n3-c3ccc(Cl)cc3CNC4)CC2)oc1Cl` [Example 99, trans-8-Chloro-1-[4-(5-chloro-4-methyl-oxazol-2-yl)-cyclohexyl]-5,6-dihydro-4H-2,3,5,10b-tetraaza-benzo[e]azulene], the Ki was 5.37 nM.

Regarding `Cc1nsc([C@H]2CC[C@H](c3nnc4n3-c3ccc(Cl)cc3CNC4)CC2)n1` [Example 70, trans-8-Chloro-1-[4-(3-methyl-[1,2,4]thiadiazol-5-yl)-cyclohexyl]-5,6-dihydro-4H-2,3,5,10b-tetraaza-benzo[e]azulene], the Ki was 129 nM.

For the compound `CCc1nc([C@H]2CC[C@H](c3nnc4n3-c3ccc(Cl)cc3CN(C(=O)OC(C)(C)C)C4)CC2)no1` [Example 86, trans-8-Chloro-1-[4-(5-ethyl-[1,2,4]oxadiazol-3-yl)-cyclohexyl]-4H,6H-2,3,5,10b-tetraaza-benzo[e]azulene-5-carboxylic acid tert-butyl ester], the Ki was 3.09 nM.

Turning to `CNCCN1Cc2cc(Cl)ccc2-n2c(nnc2[C@H]2CC[C@H](c3cc(C)on3)CC2)C1` [Example 30, trans-(2-{8-Chloro-1-[4-(5-methyl-isoxazol-3-yl)-cyclohexyl]-4H,6H-2,3,5,10b-tetraaza-benzo[e]azulen-5-yl}-ethyl)-methyl-amine], the Ki was 25.1 nM.

Consider `Cc1nc([C@H]2CC[C@H](c3nnc4n3-c3ccc(Cl)cc3CN(C(=O)OC(C)(C)C)C4)CC2)sc1C` [Example 104, trans-8-Chloro-1-[4-(4,5-dimethyl-thiazol-2-yl)-cyclohexyl]-4H,6H-2,3,5,10b-tetraaza-benzo[e]azulene-5-carboxylic acid tert-butyl ester], for which the Ki is 0.794 nM.

Turning to `Cc1nc([C@H]2CC[C@@H](c3nnc4n3-c3ccc(Cl)cc3CNC4)CC2)no1` [Example 83, cis-8-Chloro-1-[4-(5-methyl-[1,2,4]oxadiazol-3-yl)-cyclohexyl]-5,6-dihydro-4H-2,3,5,10b-tetraaza-benzo[e]azulene hydrochloride], the Ki was 617 nM.

Regarding `Cc1nc([C@H]2CC[C@H](c3nnc4n3-c3ccc(Cl)cc3CN(C(=O)OC(C)(C)C)C4)CC2)oc1C` [Example 10, trans-8-Chloro-1-[4-(4,5-dimethyl-oxazol-2-yl)-cyclohexyl]-4H,6H-2,3,5,10b-tetraaza-benzo[e]azulene-5-carboxylic acid tert-butyl ester], the Ki was 0.525 nM.

Regarding `CC(C)c1nc([C@H]2CC[C@H](c3nnc4n3-c3ccc(Cl)cc3CN(C)C4)CC2)no1` [Example 94], the Ki is 19.5 nM.

`Cc1csc([C@H]2CC[C@H](c3nnc4n3-c3ccc(Cl)cc3CN(C(=O)OC(C)(C)C)C4)CC2)n1` [Example 16, trans-8-Chloro-1-[4-(4-methyl-thiazol-2-yl)-cyclohexyl]-4H,6H-2,3,5,10b-tetraaza-benzo[e]azulene-5-carboxylic acid tert-butyl ester]: the Ki was 0.302 nM.

For `Cc1onc([C@H]2CC[C@H](c3nnc4n3-c3ccc(Cl)cc3CN(C)C4)CC2)c1C` [Example 41, trans-8-Chloro-1-[4-(4,5-dimethyl-isoxazol-3-yl)-cyclohexyl]-5-methyl-5,6-dihydro-4H-2,3,5,10b-tetraaza-benzo[e]azulene], the Ki was 0.501 nM.

As for `Cc1onc([C@H]2CC[C@H](c3nnc4n3-c3ccc(Cl)cc3CN(C)C4)CC2)c1Cl` [Example 44, trans-8-Chloro-1-[4-(4-chloro-5-methyl-isoxazol-3-yl)-cyclohexyl]-5-methyl-5,6-dihydro-4H-2,3,5,10b-tetraaza-benzo[e]azulene], the Ki is 0.603 nM.

As to `Cc1onc([C@H]2CC[C@H](c3nnc4n3-c3ccc(Cl)cc3CN(C(=O)OC(C)(C)C)C4)CC2)c1Cl` [Example 42, trans-8-Chloro-1-[4-(4-chloro-5-methyl-isoxazol-3-yl)-cyclohexyl]-4H,6H-2,3,5,10b-tetraaza-benzo[e]azulene-5-carboxylic acid tert-butyl ester], the Ki was 0.398 nM.

For the origin of these results see patent US8513238B2 (Hoffmann-La Roche Inc., priority 2010, dated 2013).
